The record followed here is patent publication US20190297888A1, “FUNGICIDAL COMPOUNDS AND MIXTURES FOR FUNGAL CONTROL IN CEREALS” (Dow AgroSciences LLC, priority 2016, published 2019).

Common to all, as to type: in vivo
The test system of assay [1] is Zymoseptoria tritici (SEPTTR). The assay is described as follows: Field assessment of Compound I and penthiopyrad on leaf blotch of wheat (AUDPC % control). Particulars: AUDPC-based, 3 field trials. From the text:
(§1) Treatments consisting of the compound of Formula I and fungicide compound penthiopyrad were applied either using individually or as a two-way mixture of penthiopyrad with the compound of Formula I. The compound of Formula I was applied with Agnique BP-420 (50% w/w at 0.3% v/v) at 75 and 150 g ai/ha and Penthiopyrad (Vertisan) was applied at 125 and 200 g ai/ha. Commercial standards used in the studies were Fluxapyroxad (Imtrex), applied at 100 g ai/ha, and Metconazole+Fluxapyroxad (Librax), applied at 161 g ai/ha.
Fungicidal treatments containing the compound of Formula I and penthiopyrad, either individually or as a two-way mixture, were assessed against leaf spot of wheat (SEPTTR) in three separate field trials. In the first trial, fungicidal treatments were applied at B33 (3% infection at application on L3) growth stage of winter wheat (TRZAW, Dinosor variety). The treatments were part of an experimental trial designed as a randomized complete block with four replications and a plot of approximately 1×6 m. Treatments were applied at water volume of 200 L/ha, using a backpack plot sprayer (BKPCKENG, FLATFANA nozzle) and pressurized at 200 kPa.
In the second trial, fungicidal treatments were applied twice at B32 (curative, 25% infection at application on L5) and B37-39 (5% infection at application on L3) growth stages of winter wheat (TRZAW, Consort variety). The treatments were part of an experimental trial designed as a randomized complete block with four replications and a plot of approximately 1×2 m. Treatments were applied at water volume of 200 L/ha, using a backpack plot sprayer (BKPCKAIR, Flat fan nozzle) and pressurized at 210 kPa.
In the final trial, fungicidal treatments were applied twice at B32 (protective, 15% infection at application on L6) and B37-39 (12% infection at application on L5) growth stages of winter wheat (TRZAW, Smaragd variety). The treatments were part of an experimental trial designed as a randomized complete block with four replications and a plot of approximately 2×3 m. Treatments were applied at water volume of 200 L/ha, using a backpack plot sprayer (BICYCAIR, FLATFANA nozzle) and pressurized at 220 kPa.
Disease severity (percentage of visual diseased foliage on whole plot or leaves) in […] field trials was recorded following EPPO PP1/26 guideline prescriptions. Area under the disease progress curve (AUDPC) was calculated for each plot in both trials using the sets of recorded severity data. Relative AUDPC (% control based on AUDPC) was calculated as percent of the nontreated control. Final results for the control of leaf spot of wheat by the compound of Formula I, penthiopyrad and mixtures are reported as an average of the relative AUDPC calculated over all three field trials. […]

Assay [2] concerns Puccinia striiformis (PUCCST). The experiment in a line: Field assessment of Compound I and penthiopyrad on yellow rust of wheat (AUDPC % control). Particulars: AUDPC-based, 2 field trials.
From the text: as §1
Fungicidal treatments containing the compound of Formula I and penthiopyrad, either individually or as a two-way mixture, were assessed against yellow rust of wheat (PUCCST) in two separate field trials. In the first trial, fungicidal treatments were applied twice at B31-32 (early curative, 2% infection at application on L3) and B37-39 (0% infection at application on L) growth stages of winter wheat (TRZAW, Fairplay variety). The treatments were part of an experimental trial designed as a randomized complete block with four replications and a plot of approximately 1×6 m. Treatments were applied at water volume of 200 L/ha, using a backpack plot sprayer (BKPCKENG, F110-015 Hardi (3) Flat fan nozzle) and pressurized at 200 kPa.
In the second trial, fungicidal treatments containing the compound of Formula I and penthiopyrad, either individually or as a two-way mixture, were applied twice at B31-32 (early curative, 5% infection on L5 at application) and B37-39 (early curative, 5% infection on L1 and L2 at application) growth stages of wheat (TRZAW, Torch variety). The treatment was part of an experimental trial designed as a randomized complete block with four replications and a plot of approximately 2×3 m. Treatments were applied at water volume of 200 L/ha, using a backpack precision plot sprayer (BKCKAIR, F110-03 Hypro (4) Flat fan nozzle) and pressurized at 300 kPa.
(§2) Disease severity (percentage of visual diseased foliage on whole plot or leaves) in both field trials was recorded following EPPO PP1/26 guideline prescriptions. Area under the disease progress curve (AUDPC) was calculated for each plot in both trials using the sets of recorded severity data. Relative AUDPC (% control based on AUDPC) was calculated as percent of the nontreated control. Final results for the control of yellow rust of wheat by the compound of Formula I, penthiopyrad and mixtures are reported as an average of the relative AUDPC calculated over all […] field trials. Statistical analysis was done according to ANOVA and Tukey's test (p=0.10).

Assay [3] relates to Puccinia triticina (PUCCRT). The experiment in a line: Field assessment of Compound I and penthiopyrad on brown rust of wheat (AUDPC % control). Particulars: AUDPC-based, 2 field trials.
From the text: as §1
Fungicidal treatments containing the compound of Formula I and penthiopyrad, either individually or as a two-way mixture, were assessed against brown rust of wheat (PUCCRT) in two separate field trials. In the first trial, fungicidal treatments were applied at B37-39 (protectant, approximately 0% infection at application) growth stages of wheat (TRZAW, MV Vanek variety) under natural infection of brown rust. The treatment was part of an experimental trial designed as a randomized complete block with four replications and a plot of approximately 2×3 m. Fungicidal treatments were applied at a water volume of 200 L/ha, using a backpack plot sprayer with a TEEJET QJ90-2XTT110 015 Nozzle.
In the second trial, fungicidal treatments containing the compound of Formula I and penthiopyrad, either individually or as a two-way mixture, were applied at B33 (curative, approximately 6.6% infection at application) growth stage of wheat (TRZAW, Miradoux variety) under natural infection of brown rust. The treatments were part of an experimental trial designed as a randomized complete block with four replications and a plot of approximately 2×3 m. Fungicidal treatments were applied at a water volume of 200 L/ha, using a backpack plot sprayer with a HARDI MD 110-02 Nozzle.
as §2, with “brown” for “yellow”

`N#Cc1ccc(Oc2ccc(C(F)(F)C(O)(Cn3ncnc3S)c3ccc(F)cc3F)nc2)cc1` (stereo not drawn) [Compound I, 4-((6-(2-(2,4-difluorophenyl)-1,1-difluoro-2-hydroxy-3-(5-mercapto-1H-1,2,4-triazol-1-yl)propyl)pyridin-3-yl)oxy)benzonitrile]: the “SEPTTR % Control” value is recorded as 60.6% in assay [1] (rate 75 g ai/ha) and 71.1% in assay [1] (rate 150 g ai/ha). The “PUCCST % Control” value came out at 72.8% in assay [2] (rate 75 g ai/ha) and 76.4% in assay [2] (rate 150 g ai/ha). Besides, the “PUCCRT % Control” value in assay [3] (rate 75 g ai/ha) is 93.5%; in assay [3] (rate 150 g ai/ha), 94.6%.
